{"source": "patent US20240307349A1", "about": "“METHODS FOR THE PREPARATION AND DOSE REGIMENS FOR USE OF SSTR4 AGONISTS AND SALTS THEREOF” (priority 2023, published 2024)", "type_in_all_cases": "in vivo, human", "key": {"[1]": {"test": "Phase 1 study LXBA, multiple-dose steady-state plasma PK in healthy subjects", "conditions": "for RA (accumulation ratio based on AUC(0-τ)) / AUC: tau = 12 hours; for Cmax / AUC(0-t) / AUC: human, in vivo, steady state; for Cmax: n = 6, geometric mean; for AUC(0-t): = 2 × AUC(0-τ), read-out: AUC(0-24); for AUC: geometric mean, read-out: AUC(0-τ)", "protocol": "The multiple-dose PK of Example 5 were evaluated at doses of 200 mg, 400 mg, and 600 mg, twice daily. The median time to tmax ranged from 1 to 3 hours post dose.\nStudy LXBA is a completed study and consisted of 2 parts, Part A and Part B (TABLE 1). Part A of the study had 18 healthy subjects in 3 dosing cohorts, and Part B had 9 healthy subjects exposed to Example 5. […] In Part A, all treatment-emergent adverse events (TEAEs) were mild in severity except for 1 moderate event of presyncope. Constipation and insomnia (2 events each) were the only TEAEs reported in >1 subject. In Part B, the reported TEAEs were dysgeusia, nausea, and vomiting, which were all mild in severity."}, "[2]": {"test_system": "participants with OA in the knee", "test": "H0P-MC-OA03 Phase 2 placebo-controlled trial, osteoarthritis pain", "excerpt": "The purpose of this study was to test whether Example 5 is efficacious in relieving osteoarthritis (OA) pain in the knee. Data was also collected to assess the safety and tolerability of Example 5 in this study population and previously discussed. Pharmacokinetic properties and pharmacodynamic effects were also be explored. The totality of data from this proof-of-concept study assessed the benefits and risks associated with Example 5.\nOA03 was an 8-week, Phase 2, randomized, double-blind, placebo-controlled study that compared Example 5 versus placebo in participants with OA in the knee.\nThe primary clinical question of interest was “What is the treatment difference between Example 5 and placebo assessed using mean change from baseline to endpoint (Week 8) for average pain intensity (API) as measured using the numeric rating scale (NRS) in participants with OA of the knee regardless of initiation of rescue medication or other allowed concomitant medication and assuming that they would have continued initially randomized treatment condition?”\nThe key secondary clinical question of interest was: “What is the treatment difference between Example 5 and placebo assessed using mean change from baseline to endpoint (Week 8) for pain as measured by the WOMAC® (Western Ontario and McMaster Universities Arthritis Index) pain subscale in participants with OA of the knee regardless of initiation of rescue medication or other allowed concomitant medication and assuming that they would have continued initially randomized treatment condition?”\nParticipants were randomly assigned in the ratio of 2:1 to Example 5 or placebo. Based on tolerability, participants could take up to a maximum of 3 capsules orally (each capsule was 200 mg), twice daily (BID), approximately every 12 hours, for a total dose of 600 mg.\nThe protocol was amended to include a titration to the target dose of 600 mg. Investigators could reduce the dose from 600 to 400 mg after discussion with the participant due to tolerability as long as the change occurred before the end of Visit 4, that is, study Week 2. The medical monitor was contacted as needed."}, "healthy subjects": {"test_system": "healthy subjects", "test": "Phase 1 study LXBB (SAD/MAD), safety and tolerability in healthy subjects", "excerpt": "The safety and tolerability of Example 5, were initially based on the 2 completed Phase 1 studies (LXBB and LXBA) and later confirmed with 3 completed Phase 2 studies (OA03, BP03, and NP03, as disclosed below).\n(§1) Phase 1 Study LXBB was a first-in-human single-ascending dose/multiple-ascending dose (SAD/MAD) study in 89 healthy subjects (TABLE 1). […] One subject was discontinued due to the nondrug-related AE of pyrexia. In the SAD study, 1 subject each reported AEs of temporomandibular joint syndrome and tension headache. In the food effect study, 1 subject reported dry eye and nausea. In the Younger Group 10-day multiple-dose exposure study, the most commonly reported AEs were headache (2 subjects), diarrhea (2 subjects), nausea, rhinitis, and orthostatic hypotension (1 subject each). In the Elderly Group 10-day multiple-dose exposure study, the most commonly reported AEs were headache (5 subjects), pain in extremity (1 subject), vessel puncture site bruise (1 subject), dizziness (1 subject), and orthostatic hypotension (1 subject).\nThe mean PR interval increase from baseline was 13 msec in subjects receiving single 400-mg dose (SAD); the highest PR interval change from baseline in an individual subject was 45 msec (after the 300-mg dose in MAD)."}, "[3]": {"test": "Phase 1 study LXBB, single-dose pharmacokinetics in healthy subjects", "protocol": "A total of 116 healthy subjects received at least one dose of Example 5 in phase 1 studies LXBB and LXBA.\nThe single-dose pharmacokinetics (PK) of Example 5 were evaluated at a dose range of from 20 to 400 mg.\nas §1"}}, "note": "Where two headings read alike, the source gives them in different places.", "data": [{"smiles": "Cc1cccnc1OCC(C)(C)NC(=O)[C@H]1[C@@H]2CNC[C@@H]21.O=C(O)C(O)C(O)C(=O)O", "note": "[Example 5, (1R,5S,6r)-N-(2-Methyl-1-((3-methylpyridin-2-yl)oxy)propan-2-yl)-3-azabicyclo[3.1.0]hexane-6-carboxamide L-tartrate sesquihydrate]", "values": [{"measurement": "RA (accumulation ratio based on AUC(0-τ))", "setting": "[1]; 200 mg BID", "value": 1.49}, {"measurement": "RA (accumulation ratio based on AUC(0-τ))", "setting": "[1]; 400 mg BID", "value": 1.81}, {"measurement": "RA (accumulation ratio based on AUC(0-τ))", "setting": "[1]; 600 mg BID", "value": 1.64}, {"measurement": "Cmax", "setting": "[1]; 200 mg BID (400 mg)", "value": 1620, "unit": "ng/mL"}, {"measurement": "AUC(0-t)", "setting": "[1]; 200 mg BID", "value": 23000, "unit": "ng·h/mL"}, {"measurement": "AUC", "setting": "[1]; 200 mg BID", "value": 11500, "unit": "ng·h/mL"}, {"measurement": "Cmax", "setting": "[1]; 400 mg BID (800 mg)", "value": 3240, "unit": "ng/mL"}, {"measurement": "AUC(0-t)", "setting": "[1]; 400 mg BID", "value": 51000, "unit": "ng·h/mL"}, {"measurement": "AUC", "setting": "[1]; 400 mg BID", "value": 25800, "unit": "ng·h/mL"}, {"measurement": "Cmax", "setting": "[1]; 600 mg BID (1200 mg)", "value": 5210, "unit": "ng/mL"}, {"measurement": "AUC(0-t)", "setting": "[1]; 600 mg BID", "value": 77400, "unit": "ng·h/mL"}, {"measurement": "AUC", "setting": "[1]; 600 mg BID", "value": 38700, "unit": "ng·h/mL"}, {"measurement": "steady-state Cmax and AUC0-24 inter-subject coefficient of variations", "setting": "[1]; multiple dose, 200 mg, 400 mg and 600 mg twice daily", "value": "< 25", "unit": "%"}, {"measurement": "Mean change from baseline assessment to endpoint for API as measured using the NRS", "setting": "[2]; 8 weeks after initial treatment administration, up to 600 mg Q12H, n = 135", "value": "−1.7"}, {"measurement": "key secondary objective: efficacy versus placebo, WOMAC pain subscale", "setting": "[2]; Week 8", "value": "did not meet the prespecified threshold"}, {"measurement": "primary objective: efficacy versus placebo, API by weekly average of NRS", "setting": "[2]; Week 8, osteoarthritic pain", "value": "did not meet the prespecified threshold"}, {"measurement": "mean change in pain intensity from baseline assessment to Week 8 using the WOMAC pain subscale", "setting": "[2]; Week 8, up to 600 mg Q12H, n = 135", "value": "−2.6"}, {"measurement": "deaths or serious adverse events (SAEs)", "setting": "healthy subjects; SAD and MAD study", "value": "No deaths or serious adverse events (SAEs) were reported"}, {"measurement": "severity of adverse events (AEs)", "setting": "healthy subjects; SAD and MAD study", "value": "mild or moderate in severity"}, {"measurement": "tolerability", "setting": "healthy subjects; SAD and MAD study, 89 healthy subjects", "value": "well tolerated"}, {"measurement": "highest PR interval change from baseline in an individual subject", "setting": "healthy subjects; after the 300-mg dose in MAD", "value": 45, "unit": "ms"}, {"measurement": "changes in chemistry, hematology, or coagulation parameters", "setting": "healthy subjects; human, in vivo", "value": "no clinically significant changes"}, {"measurement": "mean PR interval increase from baseline", "setting": "healthy subjects; single 400-mg dose (SAD)", "value": 13, "unit": "ms"}, {"measurement": "Tmax", "setting": "[3]; human, in vivo", "value": "2 to 3", "unit": "h"}, {"measurement": "CL renal", "setting": "[3]; human, in vivo, single dose, 20 to 400 mg, read-out: Renal clearance (converted)", "value": "~167", "unit": "mL/min"}, {"measurement": "half-life", "setting": "[3]; human, in vivo, single dose, 20 to 400 mg, read-out: mean terminal half-life (t1/2)", "value": "11 to 13", "unit": "h"}, {"measurement": "dose dependence of plasma concentrations", "setting": "[3]; single dose, 20 to 400 mg", "value": "generally increased in a dose-proportional manner"}, {"measurement": "inter-subject variability coefficient of variation of plasma concentrations", "setting": "[3]; single dose, 20 to 400 mg", "value": "< 25", "unit": "%"}]}]}
